Experimental findings from patent US12398139B2, “Modulators of AMPA receptor signaling” (Centre for Addiction and Mental Health, priority 2019, dated 2025) are described below.

The subject of test [1] is HEK-293 cells expressing GAPDH and GluR2. Put plainly: AMPA mediated cell-death assay (CellTox Green Cytotoxicity Assay). The test is classed as cell-based. The conditions noted are these: Homo sapiens, HEK293, AMPA 500 μM, CTZ 100 μM, CellTox Green fluorescence, read-out: Potency, inhibition of AMPA-mediated neurotoxicity (IC50, concentration at which 50% of cell death was prevented). The procedure: The ability of compounds to inhibit AMPA-mediated neurotoxicity was determined using the CellTox™ Green Cytotoxicity Assay (G8743) kit from Promega. In this assay, GAPDH and GluR2 are expressed in HEK-293 cells. AMPA (500 μM) was added to induce an AMPAR-mediated cell death signalling cascade. This is initiated by the GAPDH-GluR2 complex formation followed by the nuclear translocation of the complex, where it activates the p53-mediated cell death pathway. The presence of a compound which can block dimerization of GAPDH and GluR2 will prevent the nuclear translocation and the cell death and, thus this assay is an effective measure of the ability of a compound to prevent AMPA-mediated neurotoxicity and thus show therapeutic benefit in the treatment of MS.
The assay was performed as per the manufacture's instruction. Briefly, 293 cells stably expressing GluR1 and GluR2VENUS were transfected with pcDNA-RluC-GAPDH. AMPA (500 μM) were added to induce the cell death. CTZ (100 μM) was added to prevent AMPAR desensitization. Candidate molecules were added before the AMPA treatment to test its protective effect. Untreated cells and AMPA treated group were used as negative and positive control respectively. CellTox™ Green Reagent (˜5×) was then added to achieve a final concentration of 1× and cells were incubated at room temperature for 15 minutes (shielded from ambient light). The fluorescence intensity at 485-500 nmEx/520-530 nmEm was then measured and calculated as the percentage value of the positive control. The concentration at which 50% of cell death was prevented (IC50) was determined for each compound.
The potency was measured using the cell death assay described above.

Test [2] concerns the target T1, GluR2/GAPDH complex (Homo sapiens, UniProt P42262).
T1 construct: host or cells: HEK293 cells stably transfected with GluR2-VENUS (lysate)
Put plainly: Surface plasmon resonance target engagement assay (competitive GluR2-Venus affinity with GAPDH). Conditions: SPR, captured GluR2-VENUS, 100 nM GAPDH peptide, compound top concentration 10 μM; read-out: Potency, GluR2 Binding Affinity (competitive inhibition of GluR2-GAPDH interaction). The procedure:
This is one of the most commonly used techniques to study modulation of protein-protein interactions by small molecule ligands, providing real-time measurement of binding affinities and association/dissociation kinetics of complexes (compound/protein) in a label-free environment. The ability of our lead compound to disrupt the interaction of GluR2/GAPDH complex was measured by the binding affinity. Compounds were analyzed for competitive GluR2-Venus protein affinity (with GAPDH recombinant protein) using a Reichert 2SPR system. The surface was first charged with nickel (500 μM NiCl2 in HBS-P buffer for 300 s at a flow rate of 5 μL/min). The dextran surface was then activated with a 1:1 mixture of N-ethyl-N-dimethylaminopropylcarbodiimide (EDC) and N-hydroxysuccinimide (NHS) on line for final concentrations of EDC and NHS of 37.5 mg/mL and 5.8 mg/mL, respectively, for 420 s at a flow rate of 25 μL/min. Anti-VENUS antibody was first immobilized by capture onto a 500 KDa CM Dextran sensor chip (Reichert), proceeded by activation of the carboxymethylated dextran surface for mild amine coupling, followed by a final blocking injection of 1 M ethanolamine, pH 8.5. GluR2-VENUS (lysate of HEK293 cells stably transfected with GluR2-VENUS) was then captured for 900 s at a flow rate of 25 μL/min followed by a final blocking injection of 2% BSA, for 300 s at a flow rate of 5 μL/min.
The surface plasmon resonance affinity assay was carried out in a PBS buffer consisting of 0.05% Tween 20. For affinity measurements, compound solutions were prepared using ten three-fold serial dilutions in running buffer from a 10 μM top concentration (prepared from DMSO stocks) along with a zero (running buffer) control, mixed with 100 nM GAPDH peptide (Sigma Aldrich). A flow rate of 30 μl/min was used with a 420 s contact time (using high performance injection parameters) followed by a 120 s dissociation phase. Results were analyzed by subtracting the signals of the reference surface from the signals for the protein-bound surfaces and performing a solvent correction. Competitive binding responses were normalized throughout the screen to the percentage of inhibition of the respective small molecule compound. Three independent experiments were performed.
The binding affinity was measured using the surface plasmon resonance assay described above.
On the technique in general: In SPR one partner is held on a chip, and binding of the other changes the refractive index at the surface.

Structures can show the parent of a compound that is named as a salt.

T1 sequence (P42262 25-883, species assumed, one chain of several): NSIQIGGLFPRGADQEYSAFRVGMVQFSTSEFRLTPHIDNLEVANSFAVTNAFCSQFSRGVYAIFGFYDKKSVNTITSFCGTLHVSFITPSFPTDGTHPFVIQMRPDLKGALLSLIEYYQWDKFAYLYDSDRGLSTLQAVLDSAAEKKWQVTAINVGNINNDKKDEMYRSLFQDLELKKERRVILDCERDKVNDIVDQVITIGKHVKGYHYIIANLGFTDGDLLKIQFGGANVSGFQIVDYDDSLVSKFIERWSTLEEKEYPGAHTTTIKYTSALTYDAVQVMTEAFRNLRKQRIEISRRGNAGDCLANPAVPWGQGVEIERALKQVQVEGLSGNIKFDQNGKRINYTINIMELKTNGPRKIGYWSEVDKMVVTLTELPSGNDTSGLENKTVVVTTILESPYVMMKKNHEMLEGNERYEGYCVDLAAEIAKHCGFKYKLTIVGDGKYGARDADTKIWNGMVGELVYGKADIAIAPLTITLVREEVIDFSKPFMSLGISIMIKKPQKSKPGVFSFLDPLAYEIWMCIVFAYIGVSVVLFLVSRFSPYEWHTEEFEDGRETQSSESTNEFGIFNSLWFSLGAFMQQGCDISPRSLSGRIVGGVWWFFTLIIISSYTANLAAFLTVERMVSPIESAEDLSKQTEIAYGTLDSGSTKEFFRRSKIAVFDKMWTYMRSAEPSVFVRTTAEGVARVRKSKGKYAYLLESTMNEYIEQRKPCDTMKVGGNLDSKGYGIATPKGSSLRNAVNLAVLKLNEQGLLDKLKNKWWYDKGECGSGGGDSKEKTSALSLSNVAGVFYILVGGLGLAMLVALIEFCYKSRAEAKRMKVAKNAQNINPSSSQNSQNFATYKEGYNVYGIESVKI

Turning to `O=C(NC1CCCCC1)c1ccnc(N2Cc3cn(Cc4ccc(F)cc4)nc3C2)n1` [Compound 209, N-Cyclohexyl-2-(2-(4-fluorobenzyl)-2,6-dihydropyrrolo[3,4-c]pyrazol-5(4H)-yl)pyrimidine-4-carboxamide], the figures for the IC50 in test [1] and in test [2] were 66 nM and 99 nM, respectively.

In the case of `O=C(c1ccnc(N2Cc3cn(Cc4ccc(F)cc4)nc3C2)n1)N1CCOCC1` [Compound 211, (2-(2-(4-Fluorobenzyl)-2,6-dihydropyrrolo[3,4-c]pyrazol-5(4H)-yl)pyrimidin-4-yl)(morpholino)methanone], the IC50 in test [1] amounted to 44 nM; in test [2], 34 nM.

With `CN1CCN(C(=O)c2ccnc(N3Cc4cn(Cc5ccc(F)cc5)nc4C3)n2)CC1` [Compound 212, (2-(2-(4-Fluorobenzyl)-2,6-dihydropyrrolo[3,4-c]pyrazol-5(4H)-yl)pyrimidin-4-yl)(4-methylpiperazin-1-yl)methanone], the values for the IC50 in test [1] and in test [2] were 20 nM and 31 nM, respectively.

As to `O=C(NC1CCCC1)c1ccnc(N2Cc3cn(Cc4ccc(F)cc4)nc3C2)n1` [Compound 213], the IC50 in test [1] turned out to be 24 nM; in test [2], 20 nM.

On to `O=C(NC1CCCCC1)c1cncc(N2Cc3cn(Cc4ccc(F)cc4)nc3C2)n1` [Compound 214, N-Cyclohexyl-6-(2-(4-fluorobenzyl)-2,6-dihydropyrrolo[3,4-c]pyrazol-5(4H)-yl)pyrazine-2-carboxamide], for which the IC50 in test [1] came out at 46 nM; in test [2], 24 nM.

Turning to `O=C(NC1CCCC1)c1cccc(N2Cc3cn(Cc4ccc(F)cc4)nc3C2)c1` [Compound 215, N-Cyclopentyl-3-(2-(4-fluorobenzyl)-2,6-dihydropyrrolo[3,4-c]pyrazol-5(4H)-yl)benzamide], the IC50 was 3.5 nM in test [1] and 48 nM in test [2].

As to `CN(C)C(=O)c1cccc(N2Cc3cn(Cc4ccc(F)cc4)nc3C2)c1` [Compound 217, 3-(2-(4-Fluorobenzyl)-2,6-dihydropyrrolo[3,4-c]pyrazol-5(4H)-yl)-N,N-dimethylbenzamide], the IC50 was 6.7 nM in test [1] and 67 nM in test [2].

Consider `CN1CCN(C(=O)c2cccc(N3Cc4cn(Cc5ccc(F)cc5)nc4C3)c2)CC1` [Compound 218, (3-(2-(4-Fluorobenzyl)-2,6-dihydropyrrolo[3,4-c]pyrazol-5(4H)-yl)phenyl)(4-methylpiperazin-1-yl)methanone], for which the values for the IC50 in test [1] and in test [2] were 33 nM and 99 nM, respectively.

Consider `O=C(NCC(F)(F)F)c1cccc(N2Cc3cn(Cc4ccc(F)cc4)nc3C2)c1` [Compound 219, 3-(2-(4-Fluorobenzyl)-2,6-dihydropyrrolo[3,4-c]pyrazol-5(4H)-yl)-N-(2,2,2-trifluoroethyl)benzamide], for which the IC50 in test [1] turned out to be 28 nM; in test [2], 14 nM.

Turning to `O=C(c1cccc(N2Cc3cn(Cc4ccc(F)cc4)nc3C2)c1)N1CCNCC1` [Compound 220, (3-(2-(4-Fluorobenzyl)-2,6-dihydropyrrolo[3,4-c]pyrazol-5(4H)-yl)phenyl)(piperazin-1-yl)methanone hydrochloride], the IC50 in test [1] came to 15 nM; in test [2] it was 85 nM.

On to `CCN(CC)C(=O)c1cncc(N2Cc3cn(Cc4ccc(F)cc4)nc3C2)n1` [Compound 231, N,N-Diethyl-6-(2-(4-fluorobenzyl)-2,6-dihydropyrrolo[3,4-c]pyrazol-5(4H)-yl)pyrazine-2-carboxamide], for which the results for the IC50 in test [1] and in test [2] were 250 nM and 86 nM, respectively.

On to `COc1ccc(Cn2cc3c(n2)CN(c2cncc(C(=O)N(C)C)n2)C3)cc1` [Compound 232, 6-(2-(4-Methoxybenzyl)-2,6-dihydropyrrolo[3,4-c]pyrazol-5(4H)-yl)-N,N-dimethylpyrazine-2-carboxamide], for which the IC50 in test [1] is 54 nM; in test [2] it was 88 nM.

On to `COc1ccc(Cn2cc3c(n2)CN(c2cccc(C(=O)N(C)C)c2)C3)cc1` [Compound 233, 3-(2-(4-Methoxybenzyl)-2,6-dihydropyrrolo[3,4-c]pyrazol-5(4H)-yl)-N,N-dimethylbenzamide], for which the IC50 was determined as 62 nM in test [1] and 33 nM in test [2].

As to `Cc1ccc(Cn2cc3c(n2)CN(c2cncc(C(=O)N(C)C)n2)C3)cc1` [Compound 234, N,N-Dimethyl-6-(2-(4-methylbenzyl)-2,6-dihydropyrrolo[3,4-c]pyrazol-5(4H)-yl)pyrazine-2-carboxamide], the IC50 in test [1] was found to be 114 nM; in test [2] it was 139 nM.

`Cc1ccc(Cn2cc3c(n2)CN(c2cccc(C(=O)N(C)C)c2)C3)cc1` [Compound 235, N,N-Dimethyl-3-(2-(4-methylbenzyl)-2,6-dihydropyrrolo[3,4-c]pyrazol-5(4H)-yl)benzamide]: the IC50 in test [1] stood at 656 nM; in test [2], 1070 nM.

`CN(C)C(=O)c1cncc(N2Cc3cn(Cc4cccc(F)c4)nc3C2)n1` [Compound 236, 6-(2-(3-Fluorobenzyl)-2,6-dihydropyrrolo[3,4-c]pyrazol-5(4H)-yl)-N,N-dimethylpyrazine-2-carboxamide]: the IC50 in test [1] turned out to be 5000 nM; in test [2], 275 nM.

On to `CN(C)C(=O)c1cccc(N2Cc3cn(Cc4cccc(F)c4)nc3C2)c1` [Compound 237, 3-(2-(3-Fluorobenzyl)-2,6-dihydropyrrolo[3,4-c]pyrazol-5(4H)-yl)-N,N-dimethylbenzamide], for which the IC50 in test [1] was 47 nM; in test [2], 30 nM.

In the case of `CN(C)C(=O)c1cncc(N2Cc3cn(CC4CCCCC4)nc3C2)n1` [Compound 238, 6-(2-(Cyclohexylmethyl)-2,6-dihydropyrrolo[3,4-c]pyrazol-5(4H)-yl)-N,N-dimethylpyrazine-2-carboxamide], the IC50 in test [1] came out at 167 nM; in test [2], 102 nM.

For the compound `CN(C)C(=O)c1cccc(N2Cc3cn(CC4CCCCC4)nc3C2)c1` [Compound 239, 3-(2-(Cyclohexylmethyl)-2,6-dihydropyrrolo[3,4-c]pyrazol-5(4H)-yl)-N,N-dimethylbenzamide], the IC50 stood at 26 nM in test [1] and 41 nM in test [2].

As for `N#Cc1cccc(N2Cc3cn(Cc4ccc(F)cc4)nc3C2)c1` [Compound 240, 3-(2-(4-Fluorobenzyl)-2,6-dihydropyrrolo[3,4-c]pyrazol-5(4H)-yl)benzonitrile], the IC50 was 35 nM in test [1] and 26 nM in test [2].

As for `N#Cc1ccnc(N2Cc3cn(Cc4ccc(F)cc4)nc3C2)n1` [Compound 241, 2-(2-(4-Fluorobenzyl)-2,6-dihydropyrrolo[3,4-c]pyrazol-5(4H)-yl)pyrimidine-4-carbonitrile], the IC50 in test [1] came out at 72 nM; in test [2] it was 20 nM.

For `O=C(c1cccc(N2Cc3cn(Cc4ccc(F)cc4)nc3C2)c1)N1CCCC1` [Compound 243, (3-(2-(4-Fluorobenzyl)-2,6-dihydropyrrolo[3,4-c]pyrazol-5(4H)-yl)phenyl)(pyrrolidin-1-yl)methanone], the IC50 in test [1] came out at 1150 nM; in test [2] it was 130 nM.

In the case of `O=C(c1ccnc(N2Cc3cn(Cc4ccc(F)cc4)nc3C2)n1)N1CCCCC1` [Compound 244, (2-(2-(4-Fluorobenzyl)-2,6-dihydropyrrolo[3,4-c]pyrazol-5(4H)-yl)pyrimidin-4-yl)(piperidin-1-yl)methanone], the IC50 in test [1] and in test [2] was 2.4 nM in each case.
